Measured values published in article PMC7053343, “Small molecule NSC1892 targets the CUL4A/4B-DDB1 interactions and causes impairment of CRL4^DCAF4 E3 ligases to inhibit colorectal cancer cell growth” (International Journal of Biological Sciences, 2020).
pIC50: −log10 of the molar value.

Molecular target: T1, DNA damage-binding protein 1 (DDB1) (Homo sapiens, UniProt Q16531)
T1 construct: with CUL4A
Experiment: AlphaScreen disruption of purified His-DDB1/GST-CUL4A interaction; in vitro Ni-NTA pulldown with recombinant proteins

T1 sequence (Q16531 whole entry): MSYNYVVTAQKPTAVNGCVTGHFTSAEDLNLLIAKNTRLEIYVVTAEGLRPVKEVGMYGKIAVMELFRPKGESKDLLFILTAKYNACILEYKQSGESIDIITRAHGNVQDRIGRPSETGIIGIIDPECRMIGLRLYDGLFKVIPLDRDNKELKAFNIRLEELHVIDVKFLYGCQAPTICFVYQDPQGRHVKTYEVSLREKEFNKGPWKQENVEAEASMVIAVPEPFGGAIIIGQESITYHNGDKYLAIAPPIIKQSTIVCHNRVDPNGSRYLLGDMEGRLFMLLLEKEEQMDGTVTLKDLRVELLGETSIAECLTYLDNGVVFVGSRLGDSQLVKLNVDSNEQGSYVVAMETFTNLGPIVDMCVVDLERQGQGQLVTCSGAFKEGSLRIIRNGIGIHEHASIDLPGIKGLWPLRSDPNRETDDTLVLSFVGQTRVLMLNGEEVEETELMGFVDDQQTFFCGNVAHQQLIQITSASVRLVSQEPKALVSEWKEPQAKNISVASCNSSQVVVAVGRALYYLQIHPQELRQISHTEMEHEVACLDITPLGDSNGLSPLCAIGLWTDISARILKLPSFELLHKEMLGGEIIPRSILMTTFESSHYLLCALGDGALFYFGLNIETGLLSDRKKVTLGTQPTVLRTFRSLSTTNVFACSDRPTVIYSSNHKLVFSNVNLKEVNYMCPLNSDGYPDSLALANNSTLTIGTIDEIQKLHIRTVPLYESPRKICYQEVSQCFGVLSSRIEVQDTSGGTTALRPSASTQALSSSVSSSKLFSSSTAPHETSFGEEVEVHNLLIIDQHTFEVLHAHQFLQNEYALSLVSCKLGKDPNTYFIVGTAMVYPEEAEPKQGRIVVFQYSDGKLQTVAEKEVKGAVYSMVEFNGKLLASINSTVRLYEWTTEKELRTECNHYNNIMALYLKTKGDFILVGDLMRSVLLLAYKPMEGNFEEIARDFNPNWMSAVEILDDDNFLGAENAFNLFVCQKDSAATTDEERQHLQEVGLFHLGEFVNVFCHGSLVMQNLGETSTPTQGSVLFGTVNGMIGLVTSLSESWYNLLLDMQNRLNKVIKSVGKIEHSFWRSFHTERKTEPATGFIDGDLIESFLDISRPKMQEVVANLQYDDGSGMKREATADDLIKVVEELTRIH
T1 sequence (Q13619 whole entry partner): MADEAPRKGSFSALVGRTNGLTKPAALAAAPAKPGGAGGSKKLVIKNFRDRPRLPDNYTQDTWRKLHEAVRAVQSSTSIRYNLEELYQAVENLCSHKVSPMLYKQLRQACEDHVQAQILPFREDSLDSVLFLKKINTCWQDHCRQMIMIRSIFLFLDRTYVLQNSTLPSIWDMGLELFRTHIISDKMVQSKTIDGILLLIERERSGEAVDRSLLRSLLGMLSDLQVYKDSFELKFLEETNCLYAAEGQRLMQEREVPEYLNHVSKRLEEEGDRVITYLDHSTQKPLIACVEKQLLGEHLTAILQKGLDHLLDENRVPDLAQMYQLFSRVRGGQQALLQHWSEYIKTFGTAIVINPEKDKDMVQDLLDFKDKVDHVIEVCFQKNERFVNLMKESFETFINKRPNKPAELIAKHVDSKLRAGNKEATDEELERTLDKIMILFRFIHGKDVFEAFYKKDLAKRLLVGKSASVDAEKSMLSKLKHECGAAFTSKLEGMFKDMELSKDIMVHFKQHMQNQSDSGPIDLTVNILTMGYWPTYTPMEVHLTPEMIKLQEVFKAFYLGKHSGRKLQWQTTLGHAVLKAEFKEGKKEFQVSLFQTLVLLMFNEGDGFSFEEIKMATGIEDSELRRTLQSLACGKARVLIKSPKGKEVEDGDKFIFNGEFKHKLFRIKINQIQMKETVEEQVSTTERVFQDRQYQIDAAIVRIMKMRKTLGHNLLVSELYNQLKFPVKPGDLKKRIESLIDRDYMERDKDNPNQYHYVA

Structure (SMILES): CC(=O)O[C@@H]1c2occc2[C@@H](O)C[C@H]2[C@]3(C)CC[C@H]4C(C)(C)CCC[C@]4(C)[C@H]3C[C@@]21C [NSC1892]
- pIC50: 5.74
